Test results from ChEMBL document CHEMBL2331203, “Optimization of inhibitors of the tyrosine kinase EphB4. 2. Cellular potency improvement and binding mode validation by X-ray crystallography” (J Med Chem, 2013).

Key:
[1] = Cytotoxicity against human PAXF 1657L cells after 4 days by propidium iodide staining; details: 96 h
[2] = biological target: T1, Ephrin type-B receptor 2 (Homo sapiens) (UniProt P29323); experiment: Inhibition of human Eph-B2 using [gamma-33P]ATP assessed as residual activity at 3 uM after 30 mins by radiometric assay
T1 sequence (whole entry): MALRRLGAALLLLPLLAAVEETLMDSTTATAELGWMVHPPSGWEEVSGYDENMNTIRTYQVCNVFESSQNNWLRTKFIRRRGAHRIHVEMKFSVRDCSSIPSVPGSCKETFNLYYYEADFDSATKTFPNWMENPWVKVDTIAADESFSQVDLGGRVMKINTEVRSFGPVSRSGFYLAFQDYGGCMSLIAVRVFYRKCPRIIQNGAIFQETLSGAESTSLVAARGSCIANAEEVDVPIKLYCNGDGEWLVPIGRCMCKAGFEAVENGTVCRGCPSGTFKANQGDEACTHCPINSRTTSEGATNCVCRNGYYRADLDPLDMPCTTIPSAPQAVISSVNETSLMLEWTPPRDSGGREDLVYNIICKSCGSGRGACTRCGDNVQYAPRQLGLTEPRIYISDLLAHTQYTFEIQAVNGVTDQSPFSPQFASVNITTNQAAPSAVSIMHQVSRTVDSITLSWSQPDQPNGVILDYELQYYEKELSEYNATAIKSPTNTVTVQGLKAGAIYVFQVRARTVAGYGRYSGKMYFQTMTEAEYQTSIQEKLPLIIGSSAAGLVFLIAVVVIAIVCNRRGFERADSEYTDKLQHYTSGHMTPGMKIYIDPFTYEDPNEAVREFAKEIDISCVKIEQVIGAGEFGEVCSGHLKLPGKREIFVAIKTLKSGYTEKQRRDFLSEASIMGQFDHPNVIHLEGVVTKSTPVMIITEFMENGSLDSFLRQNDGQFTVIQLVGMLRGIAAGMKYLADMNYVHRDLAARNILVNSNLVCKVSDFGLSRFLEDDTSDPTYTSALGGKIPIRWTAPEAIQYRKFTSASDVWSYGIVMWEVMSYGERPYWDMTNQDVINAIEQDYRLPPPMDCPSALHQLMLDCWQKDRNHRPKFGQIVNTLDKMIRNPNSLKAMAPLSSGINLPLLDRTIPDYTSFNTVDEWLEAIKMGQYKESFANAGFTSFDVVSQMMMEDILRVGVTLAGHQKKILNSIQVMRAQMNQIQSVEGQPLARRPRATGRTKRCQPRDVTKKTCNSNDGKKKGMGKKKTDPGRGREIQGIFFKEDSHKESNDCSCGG

## CCCCn1c(-c2ccccc2C)cn2c3c(=O)[nH]c(=O)n(C)c3nc12
[1]
  IC50: 8.1 µM
[2]
  Activity: 8%
